The values that follow come from BindingDB's records for doi:10.1021/jm00210a006 (1979).

Where “and” joins values, the source holds several entries; their conditions need not be identical. Identical values can stand only once.

For one test, the target named is T1, Complement C1s subcomponent (Homo sapiens, UniProt P09871).
T1 sequence (P09871 whole entry): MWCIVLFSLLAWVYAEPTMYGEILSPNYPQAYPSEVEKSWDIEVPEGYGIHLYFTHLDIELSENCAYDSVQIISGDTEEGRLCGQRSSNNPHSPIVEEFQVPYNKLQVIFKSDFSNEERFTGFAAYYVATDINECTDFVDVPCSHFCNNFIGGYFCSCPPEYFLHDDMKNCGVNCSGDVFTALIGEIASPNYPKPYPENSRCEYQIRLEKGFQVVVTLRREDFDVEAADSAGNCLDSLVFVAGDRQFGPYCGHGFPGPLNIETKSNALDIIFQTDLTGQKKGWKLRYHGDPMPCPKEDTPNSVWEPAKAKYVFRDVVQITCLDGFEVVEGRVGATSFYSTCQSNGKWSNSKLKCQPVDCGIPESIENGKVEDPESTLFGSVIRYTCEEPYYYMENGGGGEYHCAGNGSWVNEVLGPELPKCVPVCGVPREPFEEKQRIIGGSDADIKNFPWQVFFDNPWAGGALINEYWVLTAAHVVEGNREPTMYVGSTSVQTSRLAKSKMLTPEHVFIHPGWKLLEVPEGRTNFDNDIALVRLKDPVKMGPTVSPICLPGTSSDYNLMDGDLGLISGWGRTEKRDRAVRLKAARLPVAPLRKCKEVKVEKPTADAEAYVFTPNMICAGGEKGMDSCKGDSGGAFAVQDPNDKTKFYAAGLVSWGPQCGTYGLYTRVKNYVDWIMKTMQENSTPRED
Briefly: Competitive inhibition of esterase activity of human activated C1s subunit of first complement component assessed as decrease in p-nitrophenol production using N-Z-L-Tyr-ONp as substrate by spectrophotometric analysis.
For `N=C(N)c1ccc(CC(=O)C(=O)O)cc1`, the inhibition constant (Ki) is 158 µM and 125 µM and 99.9 µM and 79.4 µM.
As for `Cc1ccc(C(=N)N)cc1C`, the Ki is 9990 µM and 1600 µM and 4000 µM and 6300 µM.
Consider `N=C(N)c1cccc(OCCCOc2ccccc2)c1`, for which the Ki is 12.5 µM and 15.8 µM and 20 µM and 10 µM.
Take `Cc1cc(C)cc(C(=N)N)c1`: the Ki was 630 µM and 250 µM and 79 µM.
Take `N=C(N)c1cccc(Br)c1`: the Ki came out at 100 µM.
Take `COc1cccc(C(=N)N)c1`: the Ki is 160 µM.

For the next test, the target named is Plasminogen (Homo sapiens, UniProt P00747). Kind of test: Competitive inhibition of esterase activity of human plasmin assessed as assessed as decrease in p-nitrophenol production using N-Z-L-Tyr-ONp as substrate by spectrophotometric analysis.
Sequence of Plasminogen (P00747 97-580 limits assumed): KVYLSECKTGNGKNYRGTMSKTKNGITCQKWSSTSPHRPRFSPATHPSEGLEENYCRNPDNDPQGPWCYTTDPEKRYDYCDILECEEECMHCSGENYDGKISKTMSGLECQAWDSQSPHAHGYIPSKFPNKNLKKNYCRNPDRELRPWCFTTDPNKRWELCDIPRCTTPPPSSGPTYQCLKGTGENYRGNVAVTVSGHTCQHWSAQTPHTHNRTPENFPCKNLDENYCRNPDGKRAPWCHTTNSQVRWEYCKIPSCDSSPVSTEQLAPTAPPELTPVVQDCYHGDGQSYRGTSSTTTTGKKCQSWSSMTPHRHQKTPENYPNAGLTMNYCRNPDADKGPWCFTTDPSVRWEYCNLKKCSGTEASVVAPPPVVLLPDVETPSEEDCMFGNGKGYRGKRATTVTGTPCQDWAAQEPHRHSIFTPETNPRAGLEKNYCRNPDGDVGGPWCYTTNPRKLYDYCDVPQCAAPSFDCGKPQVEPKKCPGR
Sequence of Plasminogen (P00747 581-810 limits assumed): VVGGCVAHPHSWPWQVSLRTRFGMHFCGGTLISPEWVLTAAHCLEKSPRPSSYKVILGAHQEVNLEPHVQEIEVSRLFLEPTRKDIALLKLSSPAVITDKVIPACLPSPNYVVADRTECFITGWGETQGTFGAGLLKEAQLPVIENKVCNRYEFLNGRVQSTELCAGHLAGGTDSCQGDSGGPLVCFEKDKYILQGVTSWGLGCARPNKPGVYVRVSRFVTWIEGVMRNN
Regarding `N=C(N)c1cccc(N)c1`, the Ki was 125 µM and 501 µM and 100 µM and 316 µM.
In the case of `N=C(N)c1cccc(Cc2ccccc2)c1`, the Ki was determined as 630 µM.

The next test addresses T1, Complement C1s subcomponent. Kind of test: Competitive inhibition of esterase activity of human activated C1s subunit of first complement component assessed as decrease in p-nitrophenol production using N-Z-L-Lys-ONp as substrate by spectrophotometric analysis.
`N=C(N)c1cccc(CC(=O)C(=O)O)c1`: the Ki came to 2510 µM.

One may read the Ki as the dissociation constant of the complex between target and ligand, obtained from inhibition or displacement.
